Patent publication US12568969B2, “Pyridine compounds for controlling invertebrate pests” (FMC Corporation, priority 2020, dated 2026)

How the values were obtained:
Type in all cases: in vivo
[1] = tested on: diamondback moth (Plutella xylostella (L.)); assay: Test A: control of diamondback moth on mustard plant, spray; settings: sprayed at 250 ppm; assessed after 6 days
Procedure: (§1) Test compounds were formulated using a solution containing 10% acetone, […] and 300 ppm Activator 909 non-ionic surfactant (Loveland Products, Loveland, Colorado, USA). The formulated compounds were applied in 1 mL of liquid through an atomizer nozzle positioned 1.27 cm (0.5 inches) above the top of each test unit. Test compounds were sprayed at the rates indicated, and each test was replicated three times.
For evaluating control of diamondback moth (Plutella xylostella (L.)) the test unit consisted of a small open container with a 12-14-day-old mustard plant inside. This was pre-infested with ˜50 neonate larvae that were dispensed into the test unit via corn cob grits using an inoculator. The larvae moved onto the test plant after being dispensed into the test unit.
Test compounds were formulated and sprayed at 250 ppm. After spraying of the formulated test compound, each test unit was allowed to dry for 1 hour and then a black, screened cap was placed on top. The test units were held for 6 days in a growth chamber at 25° C. and 70% relative humidity. Plant feeding damage was then visually assessed based on foliage consumed, and larvae were assessed for mortality.

[2] = tested on: corn planthopper (Peregrinus maidis (Ashmead)); assay: whole plant or invertebrate; settings: Peregrinus maidis, 144 h, 6 days; for mortality at 50 ppm: sprayed at 50 ppm; for mortality at 250 ppm: sprayed at 250 ppm; for mortality at 10 ppm: sprayed at 10 ppm
Procedure: as §1
For evaluating control of corn planthopper (Peregrinus maidis (Ashmead)) through contact and/or systemic means, the test unit consisted of a small open container with a 3-4-day-old corn (maize) plant inside. White sand was added to the top of the soil prior to application of the test compound.
Test compounds were formulated and sprayed at 250 and/or 50 ppm and/or 10 ppm. After spraying of the formulated test compound, the test units were allowed to dry for 1 h before they were post-infested with ˜15-20 nymphs (18-to-21-day-old). A black, screened cap was placed on the top of each test unit, and the test units were held for 6 days in a growth chamber at 22-24° C. and 50-70% relative humidity. Each test unit was then visually assessed for insect mortality.

[3] = tested on: green peach aphid (Myzus persicae (Sulzer)); assay: Test D: control of green peach aphid on radish plant, spray; settings: Myzus persicae, 144 h, 6 days; for mortality at 250 ppm: sprayed at 250 ppm; for mortality at 50 ppm: sprayed at 50 ppm
Procedure: as §1
For evaluating control of green peach aphid (Myzus persicae (Sulzer)) through contact and/or systemic means, the test unit consisted of a small open container with a 12-15-day-old radish plant inside. This was pre-infested by placing on a leaf of the test plant 30-40 aphids on a piece of leaf excised from a culture plant (cut-leaf method). The aphids moved onto the test plant as the leaf piece desiccated. After pre-infestation, the soil of the test unit was covered with a layer of sand.
[…] After spraying of the formulated test compound, each test unit was allowed to dry for 1 hour and then a black, screened cap was placed on top. The test units were held for 6 days in a growth chamber at 19-21° C. and 50-70% relative humidity. Each test unit was then visually assessed for insect mortality.

[4] = tested on: cotton melon aphid (Aphis gossypii (Glover)); assay: whole plant or invertebrate; settings: Aphis gossypii, 144 h, 6 days; for mortality at 50 ppm: sprayed at 50 ppm; for mortality at 250 ppm: sprayed at 250 ppm
Procedure: as §1
[…] This was pre-infested with 30-40 insects on a piece of leaf according to the cut-leaf method, and the soil of the test unit was covered with a layer of sand.
Test compounds were formulated and sprayed at 250 and/or 50 ppm. After spraying, the test units were maintained in a growth chamber for 6 days at 19° C. and 70% relative humidity. Each test unit was then visually assessed for insect mortality.

[5] = tested on: sweetpotato whitefly (Bemisia tabaci (Gennadius)); assay: Test F: control of sweetpotato whitefly on cotton plant, spray; settings: 312 h, 13 days; for mortality at 250 ppm: sprayed at 250 ppm
Procedure: as §1
For evaluating control of the sweetpotato whitefly (Bemisia tabaci (Gennadius)) through contact and/or systemic means, the test unit consisted of a small open container with a 12-14-day-old cotton plant inside. Prior to the spray application, both cotyledons were removed from the plant, leaving one true leaf for the assay. Adult whiteflies were allowed to lay eggs on the plant and then were removed from the test unit. Cotton plants infested with at least 15 eggs were submitted to the test for spraying.
Test compounds were formulated and sprayed at 250 and/or 50 ppm. After spraying, the test units were allowed to dry for 1 hour. The cylinders were then removed, and the units were taken to a growth chamber and held for 13 days at 28° C. and 50-70% relative humidity. Each test unit was then visually assessed for insect mortality.

Compound | control efficacy (40% or less feeding damage and/or 100% mortality) [1] | mortality at 50 ppm [2] [%] | mortality at 250 ppm [2] [%] | mortality at 250 ppm [3] [%] | mortality at 50 ppm [4] [%] | mortality at 250 ppm [4] [%] | mortality at 250 ppm [5] [%] | mortality at 50 ppm [3] [%] | mortality at 10 ppm [2] [%] | mortality at 50 ppm ([5]; sprayed at 50 ppm) [%]
Cc1noc(-c2cncc(Cl)c2C(F)c2ccc([S+]([O-])C(F)(F)F)cc2)n1 (mixture of isomers) [Compound 104] | very good to excellent levels of control efficacy | – | – | – | – | – | – | – | – | –
Cc1noc(-c2cncc(F)c2C(F)c2ccc(OC(F)(F)F)cc2)n1 (racemic) [Compound 39] | very good to excellent levels of control efficacy | – | – | – | – | – | – | – | – | –
FC(c1ccc(OC(F)(F)F)cc1)c1c(C2CC2)cncc1-n1nccn1 (racemic) [Compound 53] | very good to excellent levels of control efficacy | – | – | – | – | – | – | – | – | –
Cc1noc(-c2cncc(Cl)c2C(F)c2ccc(SC(F)(F)F)cc2)n1 (racemic) [Compound 103] | very good to excellent levels of control efficacy | – | – | – | – | – | – | – | – | –
FC(c1ccc(OC(F)(F)F)cc1)c1ccncc1-n1cncn1 (stereo not drawn) [Compound 12] | – | ≥ 80 | ≥ 80 | ≥ 80 | ≥ 80 | ≥ 80 | ≥ 70 | – | – | –
FC(c1ccc(OC(F)(F)F)cc1)c1c(Cl)cncc1-n1cncn1 (stereo not drawn) [Compound 15] | – | ≥ 80 | ≥ 80 | ≥ 80 | – | – | ≥ 70 | ≥ 80 | – | –
FC(c1ccc(OC(F)(F)F)cc1)c1c(Br)cncc1-n1nccn1 (stereo not drawn) [Compound 17] | – | ≥ 80 | ≥ 80 | ≥ 80 | ≥ 80 | ≥ 80 | ≥ 70 | ≥ 80 | – | –
Fc1cncc(-c2cccs2)c1C(F)c1ccc(OC(F)(F)F)cc1 (stereo not drawn) [Compound 45] | very good to excellent levels of control efficacy | ≥ 80 | – | – | ≥ 80 | ≥ 80 | – | – | ≥ 80 | –
FC(c1ccc(OC(F)(F)F)cc1)c1c(Cl)cncc1-c1ncco1 (stereo not drawn) [Compound 51] | very good to excellent levels of control efficacy | ≥ 80 | – | – | ≥ 80 | ≥ 80 | – | – | ≥ 80 | –
CCn1nccc1-c1cncc(F)c1C(F)c1ccc(OC(F)(F)F)cc1 (stereo not drawn) [Compound 55] | very good to excellent levels of control efficacy | ≥ 80 | – | – | – | – | – | – | – | –
Cn1ccc(-c2cncc(F)c2C(F)c2ccc(OC(F)(F)F)cc2)n1 (stereo not drawn) [Compound 59] | very good to excellent levels of control efficacy | – | – | – | – | ≥ 80 | – | – | – | –
FC(c1ccc(OC(F)(F)F)cc1)c1c(Cl)cncc1-c1cnco1 (stereo not drawn) [Compound 60] | very good to excellent levels of control efficacy | – | – | – | – | ≥ 80 | – | – | – | –
[O-][S+](c1ccc(C(F)c2c(F)cncc2-n2nccn2)cc1)C(F)(F)F (stereo not drawn) [Compound 67, 3-fluoro-4-[fluoro-[4-(trifluoromethylsulfinyl)phenyl]methyl]-5-(triazol-2-yl)pyridine] | – | ≥ 80 | ≥ 80 | ≥ 80 | ≥ 80 | ≥ 80 | ≥ 70 | ≥ 80 | – | –
COC(c1ccc(SC(F)(F)F)cc1)c1c(F)cncc1-n1cncn1 (stereo not drawn) [Compound 71] | – | – | – | ≥ 80 | ≥ 80 | ≥ 80 | ≥ 70 | ≥ 80 | – | ≥ 70
